The text below walks through data of patent US12286442B2, “Methods and materials for increasing transcription factor eb polypeptide levels” (University of Pittsburgh—Of the Commonwealth System of …, priority 2019, dated 2025).

Each structure is given as a SMILES string.

For one data set, the system named is BEAS-2B cells. The experiment in a line: Toxicity: compound concentration needed to induce greater than 50 percent of cell loss. Particulars: 18 hours incubation. The data set is classed as cell-based, human. In short, it runs like this:
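Reported value is the concentration giving greater than 50 percent cell loss, grouped into bins (≥25 μM; between 1 and 25 μM; ≤1 μM as "+++"). Measured by high-content imaging of DAPI-stained BEAS-2B TFEB-EGFP cells fixed after 18 h compound exposure.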

For another data set, the system named is TFEB. The experiment in a line: High content screen measuring TFEB nuclear accumulation (TFEB nuclear/cytosol ratio) in BEAS-2B cells stably expressing TFEB-EGFP. The data set is classed as cell-based, human. The following applies: 18 hours incubation. In short, it runs like this:
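Readout: lowest compound concentration giving a 25% rise in nuclear/cytosol TFEB-GFP ratio, from DAPI-masked nuclear and mask-expanded cytosolic signals. Cells (BEAS-2B, TFEB-EGFP stable, ~2300–2500/well) rested 8 hours, then treated 18 hours with compound serial dilutions in 2% FBS medium before PFA fixation and DAPI staining.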

In the case of `CCc1nc2ccc(Nc3nc(-c4ccncc4)nc4cccc(OC)c34)cc2s1` [Compound 361], the “toxicity (compound concentration needed to induce greater than 50 percent of cell loss)” value with BEAS-2B cells was “+ (cell loss of greater than 50 percent at a concentration that equals or is greater than 25 μM was represented as)”. For the same compound, the “efficacy (minimal compound concentration needed to increase TFEB nuclear/cytosol ratio by 25%)” value in the data set with TFEB is “++ (“++” equals between ≤25 μM and >1 μM)”.

For the compound `CCc1nc2ccc(Nc3nc(-c4ccncc4)nc4ncccc34)cc2o1` [Compound 356], the “toxicity (compound concentration needed to induce greater than 50 percent of cell loss)” value in the data set on BEAS-2B cells was “+ (cell loss of greater than 50 percent at a concentration that equals or is greater than 25 μM was represented as)”. The “efficacy (minimal compound concentration needed to increase TFEB nuclear/cytosol ratio by 25%)” value in the data set on TFEB is recorded as “+++ (“+++” equals ≤1 μM)”.

As to `CCC(C)NC(=O)Cn1c(=O)n(-c2ccc(OC)cc2)c(=O)c2ccc(C(=O)NCc3ccc(C)cc3)cc21` (stereo not drawn) [Compound 216], the “toxicity (compound concentration needed to induce greater than 50 percent of cell loss)” value with BEAS-2B cells is “+ (cell loss of greater than 50 percent at a concentration that equals or is greater than 25 μM was represented as)”. In the data set on TFEB, the “efficacy (minimal compound concentration needed to increase TFEB nuclear/cytosol ratio by 25%)” value is recorded as “+ (“+” equals >25 μM)”.

With `Cc1c(Nc2nc(-c3ccncc3)nc3ncccc23)ccc2[nH]ccc12` [Compound 137], in the data set with BEAS-2B cells, the “toxicity (compound concentration needed to induce greater than 50 percent of cell loss)” value was “+ (cell loss of greater than 50 percent at a concentration that equals or is greater than 25 μM was represented as)”. In addition, in the data set with TFEB, the “efficacy (minimal compound concentration needed to increase TFEB nuclear/cytosol ratio by 25%)” value was “+++ (“+++” equals ≤1 μM)”.

For the compound `c1cnc2ccc(Nc3nc(-c4ccncc4)nc4ccncc34)cc2c1` [Compound 127], the “toxicity (compound concentration needed to induce greater than 50 percent of cell loss)” value in the data set on BEAS-2B cells is on record as “+ (cell loss of greater than 50 percent at a concentration that equals or is greater than 25 μM was represented as)”. For the same compound, in the data set with TFEB, the “efficacy (minimal compound concentration needed to increase TFEB nuclear/cytosol ratio by 25%)” value was “++ (“++” equals between ≤25 μM and >1 μM)”.

For `O=[N+]([O-])c1cccc(-c2nc(Nc3cccc(F)c3)c3ccccc3n2)c1` [Compound 161], the “toxicity (compound concentration needed to induce greater than 50 percent of cell loss)” value in the data set with BEAS-2B cells is listed as “+ (cell loss of greater than 50 percent at a concentration that equals or is greater than 25 μM was represented as)”. Also, the “efficacy (minimal compound concentration needed to increase TFEB nuclear/cytosol ratio by 25%)” value with TFEB was “+ (“+” equals >25 μM)”.

Turning to `Oc1ccc(-c2nc(Nc3ccc4[nH]ccc4c3)c3ccccc3n2)cc1` [Compound 63], in the data set on BEAS-2B cells, the “toxicity (compound concentration needed to induce greater than 50 percent of cell loss)” value is reported as “+ (cell loss of greater than 50 percent at a concentration that equals or is greater than 25 μM was represented as)”. The “efficacy (minimal compound concentration needed to increase TFEB nuclear/cytosol ratio by 25%)” value in the data set on TFEB is “+ (“+” equals >25 μM)”.

In the case of `CC(=O)c1cc(C)cc(Nc2nc(-c3ccncc3)nc3ccccc23)c1` [Compound 52], the “toxicity (compound concentration needed to induce greater than 50 percent of cell loss)” value in the data set with BEAS-2B cells is on record as “+ (cell loss of greater than 50 percent at a concentration that equals or is greater than 25 μM was represented as)”. Moreover, in the data set on TFEB, the “efficacy (minimal compound concentration needed to increase TFEB nuclear/cytosol ratio by 25%)” value is “+ (“+” equals >25 μM)”.

With `Cc1cccc2c(Nc3ccc4nc(C(C)C)sc4c3)nc(-c3ccncc3)nc12` [Compound 155], the “toxicity (compound concentration needed to induce greater than 50 percent of cell loss)” value in the data set on BEAS-2B cells is given as “+ (cell loss of greater than 50 percent at a concentration that equals or is greater than 25 μM was represented as)”. Moreover, the “efficacy (minimal compound concentration needed to increase TFEB nuclear/cytosol ratio by 25%)” value with TFEB is “+++ (“+++” equals ≤1 μM)”.

`c1cc(-c2nc(Nc3ccc4c(c3)OCO4)c3cnccc3n2)ccn1` [Compound 123]: the “toxicity (compound concentration needed to induce greater than 50 percent of cell loss)” value in the data set with BEAS-2B cells is on record as “+ (cell loss of greater than 50 percent at a concentration that equals or is greater than 25 μM was represented as)”. Besides, the “efficacy (minimal compound concentration needed to increase TFEB nuclear/cytosol ratio by 25%)” value in the data set on TFEB was “++ (“++” equals between ≤25 μM and >1 μM)”.

Take `Cc1cc2c(F)c(Nc3nc(-c4ccncc4)nc4ccccc34)ccc2[nH]1` [Compound 30]: the “toxicity (compound concentration needed to induce greater than 50 percent of cell loss)” value in the data set on BEAS-2B cells is reported as “+++ (cell loss of greater than 50 percent at a concentration that equals or is less than 1 μM was represented as “+++.”)”. The “efficacy (minimal compound concentration needed to increase TFEB nuclear/cytosol ratio by 25%)” value in the data set on TFEB is listed as “+++ (“+++” equals ≤1 μM)”.

For the compound `FC(F)c1nc2ccc(Nc3nc(-c4ccncc4)nc4ccccc34)cc2s1` [Compound 92], in the data set on BEAS-2B cells, the “toxicity (compound concentration needed to induce greater than 50 percent of cell loss)” value is listed as “+ (cell loss of greater than 50 percent at a concentration that equals or is greater than 25 μM was represented as)”. The “efficacy (minimal compound concentration needed to increase TFEB nuclear/cytosol ratio by 25%)” value with TFEB is “++ (“++” equals between ≤25 μM and >1 μM)”.

Turning to `Fc1cc(F)cc(Nc2nc(-c3ccncc3)nc3ccccc23)c1` [Compound 182], the “toxicity (compound concentration needed to induce greater than 50 percent of cell loss)” value in the data set on BEAS-2B cells was “+ (cell loss of greater than 50 percent at a concentration that equals or is greater than 25 μM was represented as)”. Besides, the “efficacy (minimal compound concentration needed to increase TFEB nuclear/cytosol ratio by 25%)” value in the data set on TFEB was “+ (“+” equals >25 μM)”.

Consider `c1ccc2c(Nc3ccc4sncc4c3)nc(-c3cncs3)nc2c1` [Compound 392], for which the “toxicity (compound concentration needed to induce greater than 50 percent of cell loss)” value in the data set on BEAS-2B cells was “+ (cell loss of greater than 50 percent at a concentration that equals or is greater than 25 μM was represented as)”. In addition, the “efficacy (minimal compound concentration needed to increase TFEB nuclear/cytosol ratio by 25%)” value in the data set on TFEB is listed as “+ (“+” equals >25 μM)”.

Regarding `Cc1nc2cc(C)c(Nc3nc(-c4ccncc4)nc4ccccc34)cc2s1` [Compound 86], the “toxicity (compound concentration needed to induce greater than 50 percent of cell loss)” value with BEAS-2B cells is listed as “+++ (cell loss of greater than 50 percent at a concentration that equals or is less than 1 μM was represented as “+++.”)”. The “efficacy (minimal compound concentration needed to increase TFEB nuclear/cytosol ratio by 25%)” value in the data set with TFEB is given as “+++ (“+++” equals ≤1 μM)”.

Regarding `NC1CCC(Nc2nc(-c3ccncc3)nc3ccccc23)CC1` (stereo not drawn) [Compound 60], in the data set with BEAS-2B cells, the “toxicity (compound concentration needed to induce greater than 50 percent of cell loss)” value was “+ (cell loss of greater than 50 percent at a concentration that equals or is greater than 25 μM was represented as)”. Besides, in the data set with TFEB, the “efficacy (minimal compound concentration needed to increase TFEB nuclear/cytosol ratio by 25%)” value is recorded as “+ (“+” equals >25 μM)”.

Turning to `Cc1cc(F)cc(Nc2nc(-c3ccncc3C)nc3ccccc23)c1` [Compound 53], the “toxicity (compound concentration needed to induce greater than 50 percent of cell loss)” value with BEAS-2B cells was “+ (cell loss of greater than 50 percent at a concentration that equals or is greater than 25 μM was represented as)”. Moreover, the “efficacy (minimal compound concentration needed to increase TFEB nuclear/cytosol ratio by 25%)” value in the data set on TFEB is on record as “+ (“+” equals >25 μM)”.

In the case of `CN(C)CCn1c(=O)n(-c2ccccc2)c(=O)c2ccccc21` [Compound 228], the “toxicity (compound concentration needed to induce greater than 50 percent of cell loss)” value in the data set on BEAS-2B cells is recorded as “+ (cell loss of greater than 50 percent at a concentration that equals or is greater than 25 μM was represented as)”. The “efficacy (minimal compound concentration needed to increase TFEB nuclear/cytosol ratio by 25%)” value with TFEB is “+ (“+” equals >25 μM)”.

In the case of `Clc1cccc(Nc2nc(-c3ccncc3)nc3ccccc23)c1` [Compound 187], the “toxicity (compound concentration needed to induce greater than 50 percent of cell loss)” value with BEAS-2B cells was “+ (cell loss of greater than 50 percent at a concentration that equals or is greater than 25 μM was represented as)”. Moreover, the “efficacy (minimal compound concentration needed to increase TFEB nuclear/cytosol ratio by 25%)” value in the data set on TFEB is given as “+++ (“+++” equals ≤1 μM)”.

`Cc1cnccc1-c1nc(Nc2ccc3[nH]ncc3c2)c2ccccc2n1` [Compound 45]: the “toxicity (compound concentration needed to induce greater than 50 percent of cell loss)” value in the data set with BEAS-2B cells is on record as “+ (cell loss of greater than 50 percent at a concentration that equals or is greater than 25 μM was represented as)”. For the same compound, the “efficacy (minimal compound concentration needed to increase TFEB nuclear/cytosol ratio by 25%)” value with TFEB is “+ (“+” equals >25 μM)”.

As for `O=C(NCCc1ccccc1)c1ccc2c(=O)n(-c3ccccc3)c(=O)[nH]c2c1` [Compound 238], the “toxicity (compound concentration needed to induce greater than 50 percent of cell loss)” value in the data set on BEAS-2B cells is given as “+ (cell loss of greater than 50 percent at a concentration that equals or is greater than 25 μM was represented as)”. In the data set with TFEB, the “efficacy (minimal compound concentration needed to increase TFEB nuclear/cytosol ratio by 25%)” value is “+ (“+” equals >25 μM)”.

Regarding `Fc1cccc(Nc2nc(-c3ccncc3)nc3ccncc23)c1` [Compound 194], the “toxicity (compound concentration needed to induce greater than 50 percent of cell loss)” value in the data set with BEAS-2B cells is reported as “+ (cell loss of greater than 50 percent at a concentration that equals or is greater than 25 μM was represented as)”. Moreover, in the data set on TFEB, the “efficacy (minimal compound concentration needed to increase TFEB nuclear/cytosol ratio by 25%)” value is reported as “+++ (“+++” equals ≤1 μM)”.

On to `c1ccc2c(Nc3cccc4[nH]nnc34)nc(-c3ccncc3)nc2c1` [Compound 101], for which the “toxicity (compound concentration needed to induce greater than 50 percent of cell loss)” value in the data set with BEAS-2B cells was “+ (cell loss of greater than 50 percent at a concentration that equals or is greater than 25 μM was represented as)”. Moreover, the “efficacy (minimal compound concentration needed to increase TFEB nuclear/cytosol ratio by 25%)” value in the data set on TFEB is “+ (“+” equals >25 μM)”.

As to `c1ccc2c(NC3CCCCC3)nc(-c3ccncc3)nc2c1` [Compound 170], in the data set on BEAS-2B cells, the “toxicity (compound concentration needed to induce greater than 50 percent of cell loss)” value is “+ (cell loss of greater than 50 percent at a concentration that equals or is greater than 25 μM was represented as)”. Further, the “efficacy (minimal compound concentration needed to increase TFEB nuclear/cytosol ratio by 25%)” value with TFEB is “+ (“+” equals >25 μM)”.

`CCCN(CCC)c1nc(-c2ccncc2)nc2ccccc12` [Compound 166]: the “toxicity (compound concentration needed to induce greater than 50 percent of cell loss)” value in the data set on BEAS-2B cells was “+ (cell loss of greater than 50 percent at a concentration that equals or is greater than 25 μM was represented as)”. In the data set with TFEB, the “efficacy (minimal compound concentration needed to increase TFEB nuclear/cytosol ratio by 25%)” value was “+ (“+” equals >25 μM)”.

As to `CC(C)c1nc2ccc(Nc3nc(-c4ccncc4)nc4ccncc34)cc2s1` [Compound 120], in the data set on BEAS-2B cells, the “toxicity (compound concentration needed to induce greater than 50 percent of cell loss)” value is listed as “+ (cell loss of greater than 50 percent at a concentration that equals or is greater than 25 μM was represented as)”. For the same compound, the “efficacy (minimal compound concentration needed to increase TFEB nuclear/cytosol ratio by 25%)” value in the data set on TFEB was “+ (“+” equals >25 μM)”.

As to `COc1ccc(-c2nc(Nc3ccc(C)c(F)c3)c3ccccc3n2)cc1` [Compound 163], the “toxicity (compound concentration needed to induce greater than 50 percent of cell loss)” value with BEAS-2B cells is “+ (cell loss of greater than 50 percent at a concentration that equals or is greater than 25 μM was represented as)”. Also, the “efficacy (minimal compound concentration needed to increase TFEB nuclear/cytosol ratio by 25%)” value in the data set on TFEB is on record as “+ (“+” equals >25 μM)”.
